Reference: patent US5306496A, “Antibiotics NK374186A, NK374186B, NK374186B3 and NK374186C3, process for producing the same, and use of the same” (Nippon Kayaku Kabushiki Kaisha, priority 1991, dated 1994)
Values after ≈ are worked out from the molar mass of the structure shown.

What was measured:
[1] = system: transplanted section/host reaction (GVH); experiment: Transplanted section/host reaction (GVH), spleen weighing method; assay type: in vivo, BDF mouse; conditions: for Spleen/total body weight ± S.D. / Index (spleen/total body weight): subcutaneous, 3 days; for Spleen/total body weight ± S.D.: seventh day after transplantation; for Index (spleen/total body weight): untreated = 1.00
Description: This test is carried out in accordance with the spleen weighing method of Ford et al. [Ford, W. L., et al., Handbook of Experimental Immunology 30 (ed. by Weir, D. M.), Blackwell Scientific Publications, (1978), page 1]. 5×10^6 spleen cells obtained from a donor C57BL/6 mouse (male, aged 8 weeks) are transplanted into the peritoneal cavity of a BDF mouse (male, aged 7 weeks) which is the Fl hybrid receptor. At the same time, NK374186 and a control drug are dissolved in a solvent (0.25 % gum arabic) and subcutaneously injected into the dorsum of the receptor mouse. As a control, the solvent alone is also subcutaneously injected into the dorsum of the mouse. The same administration is effected on the next day and on the following day. On the seventh day after the transplantation, the spleen of the animal is weighed.

Solubility = assay type: physicochemical
[2] = system: Bacilli, Staphylococcus and Micrococcus; experiment: Antibacterial activity, summary in words; assay type: cell-based; conditions: on Bacilli, agar dilution method
Description: (§1) The antibacterial and antifungal activities of each antibiotic are expressed in minimum inhibitory concentration (MIC) determined by the agar dilution method. In the antibacterial activity test, each test microorganism is inoculated onto a Muller/Hinton medium and cultured therein at 37° C. overnight to observe the growth of the microorganism. In the antifungal activity test, each test microorganism is inoculated onto a Czapek medium and cultured therein at 27° C. for 2 to 3 days, followed by the observation of the growth of the microorganism.

A2780 = experiment: Cell growth suppressing activity (MTT method); assay type: cell-based; conditions: A2780, human ovarian cancer, 2 days
Description: (§2) Cells are incubated in an RPMI 1640 medium containing 10% of fetal calf serum at 37° C. under 5% of CO2. Then these cells are sowed in a 96-well plate and pre-incubated for 1 day, followed by the addition of each test compound. The treatment with the test compound was carried out for 2 days and the activity of suppressing the cell growth was evaluated by the MTT method.

Li-7 = experiment: Cell growth suppressing activity (MTT method); assay type: cell-based; conditions: Li-7, human hepatic cancer, 2 days
Description: as §2

Escherichia coli K-12 = experiment: Antibacterial activity, MIC by agar dilution method; assay type: cell-based; conditions: Muller/Hinton medium, 37° C., overnight
Description: as §1

[3] = system: Bacillus megaterium ATCC 14945; experiment: as above; assay type: cell-based; conditions: Muller/Hinton medium, 37° C., overnight
Description: as §1

[4] = system: Staphylococcus aureus FDA 209P; experiment: as above; assay type: cell-based; conditions: Muller/Hinton medium, 37° C., overnight
Description: as §1

[5] = system: Bacillus subtilis ATCC 6633; experiment: as above; assay type: cell-based; conditions: Muller/Hinton medium, 37° C., overnight
Description: as §1

[6] = system: Micrococcus flavus ATCC 10240; experiment: as above; assay type: cell-based; conditions: Muller/Hinton medium, 37° C., overnight
Description: as §1

[7] = system: Bacillus subtilis IAM 1072; experiment: as above; assay type: cell-based; conditions: Muller/Hinton medium, 37° C., overnight
Description: as §1

Escherichia coli NIHJ = experiment: as above; assay type: cell-based; conditions: Muller/Hinton medium, 37° C., overnight
Description: as §1

[8] = as above; assay type: cell-based; conditions: Mycobacterium luteus ATCC 9341; Muller/Hinton medium, 37° C., overnight
Description: as §1

mammalian cells = experiment: Suppressing the growth of mammalian cells, in words; assay type: cell-based
2780^AD = experiment: Cell growth suppressing activity (MTT method), adriamycin-resistant strain; assay type: cell-based, human; conditions: adriamycin-resistant strain obtained from A2780, 2 days
Description: as §2

Li-7, A2780 and 2780^AD = experiment: Cell growth suppressing activity (MTT method), all cell lines, in words; assay type: cell-based, human; conditions: each cell line
Description: as §2

CDF-1 mice = experiment: Toxicity, repeated intraperitoneal administration; assay type: in vivo; conditions: 100 mg/kg intraperitoneal once a day for 10 days
Description: 100 mg/kg of NK374186A and NK374186B are intraperitoneally administered to CDF-1 mice (male, aged 8 weeks) repetitively once a day for 10 days. Each test compound is administered in the form of a solution in 3.5% DMSO+6.5% Tween+90% physiological saline.

[9] = system: mouse lymphoblast formation with LPS (spleen cells); experiment: Mouse lymphoblast formation with LPS ([^3 H]-thymidine uptake); assay type: cell-based, BALB/C mouse; conditions: 72 hours, control = 100
Description: (§3) An RPMI 1640 medium containing 20% of fetal calf serum, 25 mM of Hepes buffer, 100 μg/ml of streptomycin and 100 U/ml of penicillin G is used. The incubation is carried out in a 96-well flat-bottomed microplate (COSTAR). As a mitogen, lipopolysaccharide (LPS) and concanavalin A (Con A) are used respectively at final concentrations of 100 μg/ml and 5 μg/ml.
(§4) The spleen of a BALB/C mouse (female,>20 weeks in age) is taken out and a single-cell suspension is prepared. After removing erythrocytes by hyper shock, the suspension is used as such for the treatment with LPS. For the treatment with Con A, on the other hand, the suspension is passed through a Nylon Fiber (a product of Wako Pure Chemicals, Inc.) for separating T cells. 2×10^5 /well of the spleen cells and each test compound of the concentration as specified above are added to thereby give a total volume of 0.2 ml/well, followed by incubation for 72 hours. 8 hours before the completion of the incubation, 37 KBq/well of [^3 H]-thymidine is added and the thymidine uptake in the cells is measured. The effect is evaluated based on the ratio of the [^3 H]-thymidine uptake of a test group to that of a control group ["Meneki Jikken Sosa-ho (Procedures of Immunological Tests)", ed. by Japan Assoc. of Immunol., pages 2267-2276].

[10] = system: mouse lymphoblast formation with Con A (T cells); experiment: Mouse lymphoblast formation with Con A ([^3 H]-thymidine uptake); assay type: cell-based, BALB/C mouse; conditions: Con A 5 μg/ml, 72 hours, control = 100
Description: as §3, §4

[11] = system: Trycophyton mentagrophytes IFO 5466; experiment: Antifungal activity, MIC by agar dilution method; assay type: cell-based; conditions: Czapek medium, 27° C., 2 to 3 days
Description: as §1

[12] = system: Aspergillus niger IFO 4407; experiment: Antifungal activity, MIC by agar dilution method; assay type: cell-based; conditions: Czapek medium, 27° C., 2 to 3 days
Description: as §1

[13] = system: Rhizopus hanguchao IFO 4749; experiment: Antifungal activity, MIC by agar dilution method; assay type: cell-based; conditions: Czapek medium, 27° C., 2 to 3 days
Description: as §1

Mucor javanicus IFO 4569 = experiment: Antifungal activity, MIC by agar dilution method; assay type: cell-based; conditions: Czapek medium, 27° C., 2 to 3 days
Description: as §1

Botrytis fabae IFO 6183 = experiment: Antifungal activity, MIC by agar dilution method; assay type: cell-based; conditions: Czapek medium, 27° C., 2 to 3 days
Description: as §1

[14] = system: Penicillium chrysogenum IFO 8645; experiment: Antifungal activity, MIC by agar dilution method; assay type: cell-based; conditions: Czapek medium, 27° C., 2 to 3 days
Description: as §1

[15] = system: Candida albicans IFO 1385; experiment: Antifungal activity, MIC by agar dilution method; assay type: cell-based; conditions: Czapek medium, 27° C., 2 to 3 days
Description: as §1

[16] = system: mouse lymphoblast formation with LPS and Con A; experiment: Mouse lymphoblast formation with LPS and Con A, summary in words; assay type: cell-based, BALB/C mouse
Description: as §3, §4

## C=CC(C)(C)[C@H](NC(=O)[C@H](C)[C@H](O)[C@H](C)[C@H](O)CCCCCCCCCCCCC)C(=O)N[C@H](C(=O)N[C@@H](C=O)C(=O)O)[C@@H](C)O [NK374186B]
[1]; 0.5 mg/kg
  Spleen/total body weight ± S.D.: 8.24 ± 1.54 ×10^-3
  Index (spleen/total body weight): 1.74
[1]; 5 mg/kg
  Spleen/total body weight ± S.D.: 11.32 ± 3.61 ×10^-3
[1]; 5 mg/kg, * printed
  Index (spleen/total body weight): 2.40
[1]; 50 mg/kg
  Spleen/total body weight ± S.D.: 12.63 ± 3.37 ×10^-3
[1]; 50 mg/kg, * (A), ** (B) printed
  Index (spleen/total body weight): 2.67
[1]; in words
  GVH reaction: significantly enhanced
  spleen/total body weight ratio: increased depending on the dose
Solubility
  solubility: soluble in lower alcohols, chloroform and ethyl acetate
[2]
  antibacterial activity: potent antibacterial activity on Bacilli, Staphylococcus and Micrococcus
A2780
  IC50: 6.6 µg/mL (≈ 10.1 µM)
Li-7
  IC50: 7.0 µg/mL (≈ 10.7 µM)
Escherichia coli K-12
  MIC: > 100 µg/mL
[3]
  MIC: 6.25 µg/mL (≈ 9.53 µM)
[4]
  MIC: 3.13 µg/mL (≈ 4.77 µM)
[5]
  MIC: > 100 µg/mL
[6]
  MIC: 3.13 µg/mL (≈ 4.77 µM)
[7]
  MIC: 6.25 µg/mL (≈ 9.53 µM)
Escherichia coli NIHJ
  MIC: > 100 µg/mL
[8]
  MIC: > 100 µg/mL
Mammalian cells
  activity of suppressing the growth of mammalian cells: weak activity of suppressing the growth of mammalian cells
2780^AD
  IC50: 33 µg/mL (≈ 50.3 µM)
Li-7, A2780 and 2780^AD
  cell growth suppression: suppress the growth of each cell line
CDF-1 mice
  death of mice: none of these compounds causes the death of mice
  toxicity: low toxicity
CDF-1 mice; versus solvent control group
  clinical conditions: no difference from those of the solvent control group
[9]; 0.1 μg/ml, LPS 100 μg/ml
  Function index, LPS: 156.3%
[9]; 1 μg/ml, LPS 100 μg/ml
  Function index, LPS: 156.3%
[9]; 10 μg/ml, LPS 100 μg/ml
  Function index, LPS: 94.7%
[9]; 100 μg/ml
  Function index, LPS: 0.8%
[10]; 0.1 μg/ml
  Function index, Con A: 133.7%
[10]; 1 μg/ml
  Function index, Con A: 168.8%
[10]; 10 μg/ml
  Function index, Con A: 111.6%
[10]; 100 μg/ml
  Function index, Con A: 31.5%
[11]
  MIC: > 100 µg/mL
[12]
  MIC: > 100 µg/mL
[13]
  MIC: > 100 µg/mL
Mucor javanicus IFO 4569
  MIC: > 100 µg/mL
Botrytis fabae IFO 6183
  MIC: > 100 µg/mL
[14]
  MIC: > 100 µg/mL
[15]
  MIC: > 100 µg/mL
[16]; at a concentration of 10 μg/ml or above
  lymphoblast formation: potently suppress the same at a concentration of 10 μg/ml or above
[16]; at a lower concentration
  lymphoblast formation: promote the lymphoblast formation with LPS and Con A at a lower concentration
